What is called IC50 is the concentration at which inhibition is half-maximal.

Read-outs that look alike come from different tables or passages of the source.

The values below come from EP4737449A1 (Changchun Genescience Pharmaceutical Co., Ltd., priority 2023, dated 2025).

In test [1] the target is T1, p53-Y220C mutant protein (Homo sapiens, UniProt P04637, Y220C).
T1 construct: The recombinant Y220C p53 DBD protein with his-tag
The test can be described thus: In vitro DNA binding activity assay (TR-FRET). The format is biochemical. Particulars: concentration required to increase the binding activity of protein to DNA by 50%. The essentials: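 SC150, the compound concentration increasing p53-Y220C DNA binding by 50% relative to vehicle, came from background-corrected 665/615 nm TR-FRET ratios. His-tagged DBD and compound were preincubated 60 min at RT before biotin-DNA plus Eu-anti-His/streptavidin-d2 detection overnight in the dark.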
(Time-resolved FRET reads energy transfer from a long-lived donor to a nearby acceptor.)

For test [2], the system named is NUGC-3 cells. The test can be described thus: NUGC-3 cell proliferation assay (CTG, 7 days). Particulars: NUGC-3 cell proliferation, 7 days, CTG, read-out: IC50. The format is cell-based, human. How it is done: The cells were cultured in strict accordance with ATCC requirements.
Cell culture medium: 1640 culture medium, 10% serum, 1% penicillin + streptomycin.
Culture conditions: 37°C, 95% air, 5% carbon dioxide.
Compounds (20 mM) were subjected to gradient dilution in DMSO: 10 gradients, 3-fold dilution, duplicate wells.
Positive and negative controls (100% dimethyl sulfoxide) were prepared.
The compounds that were gradient diluted with DMSO and positive and negative controls (1st and 2nd step), each 75 nL, were transferred to 384-well cell culture plates by Echo550.
The cells were washed twice with PBS, digested with trypsin, and centrifuged for cell counting.
The experiment can only be carried out when the cell viability is above 90%.
The cells were plated into 384-well cell culture plates, with 200 (NUGC-3) cells and 30 µL of culture medium per well.
The 384-well microplate was placed in a cell culture incubator for 7 days.
30 µL of CTG detection reagent was added to the 384-well microplate.
The 384-well microplate was incubated for 30 min at 37°C, 5% carbon dioxide in the dark.
The reading was performed by a multi-functional microplate reader Envision.
% Inhibition is calculated as follows: % Inhibition = 100−(Signalcmpd−SignalAve_BL)/(SignalAve_VC−SignalAve_BL)*100 [formula] • Signalcmpd: Average signal of the compound in the cell plate • Signalave_vc: Average signal of the negative control in the cell plate • Signalave_BL: Average signal of the blank wells in the cell plate
IC50 was calculated by fitting % inhibition and compound concentration logarithmically to a nonlinear regression (dose response - variable slope) using Graphpad 8.0. Table 2 IC50 of selected compounds in NUGC-3 cell proliferation assay

`CC(C1CC1)n1ncc(C(=O)NCC#Cc2nn3c(N[C@@H]4CCN(C)C[C@@H]4F)cccc3c2CC(F)(F)F)c1N` (single isomer, unassigned) [Compound 291B] showed an SC150 in test [1] of 4 nM. In test [2], the 50% inhibitory concentration (IC50) came out at 162 nM.
In turn, `CN1CC[C@@H](Nc2cccc3c(CC(F)(F)F)c(C#CCNC(=O)c4ccc(N(C)C)nc4)nn23)[C@@H](F)C1` [Compound 328, 6-dimethylamino-N-[3-(7-{[(3S,4R)-3-fluoro-1-methylpiperidin-4-yl]amino}-3-(2,2,2-trifluoroethyl)pyrazolo[1,5-a]pyridin-2-yl)prop-2-yn-1-yl]pyridine-3-carboxamide] displayed an SC150 in test [1] of 30 nM. The IC50 in test [2] (Homo sapiens, NUGC-3, 168 h) stood at 1210 nM.
For `Cc1cc(C(=O)NCC#Cc2nn3c(N[C@@H]4CCN(C)C[C@@H]4F)cccc3c2CC(F)(F)F)[nH]c1C` [Compound 317, N-[3-(7-{[(3S,4R)-3-fluoro-1-methylpiperidin-4-yl]amino}-3-(2,2,2-trifluoroethyl)pyrazolo[1,5-a]pyridin-2-yl)prop-2-yn-1-yl]-4,5-dimethyl-1H-pyrrole-2-carboxamide] the same measures were 44 nM and 1290 nM.
In the same order, the values of `CN1CC[C@@H](Nc2cccc3c(CC(F)(F)F)c(C#CCNC(=O)c4cnn5c4CCC5)nn23)[C@@H](F)C1` [Compound 231, N-[3-(7-{[(3S,4R)-3-fluoro-1-methylpiperidin-4-yl]amino}-3-(2,2,2-trifluoroethyl)pyrazolo[1,5-a]pyridin-2-yl)prop-2-yn-1-yl]-5,6-dihydro-4H-pyrrolo[1,2-b]pyrazole-3-carboxamide] are 19 nM and 724 nM.
For `[2H]C([2H])([2H])N1CC[C@@H](Nc2cccc3c(CC(F)(F)F)c(C#CCNC(=O)c4cnn(C(C)(C)C)c4N)nn23)[C@@H](F)C1` [Compound 311, 5-amino-1-(tert-butyl)-N-[3-(7-{[(3S,4R)-3-fluoro-1-(methyl-d3)piperidin-4-yl]amino}-3-(2,2,2-trifluoroethyl)pyrazolo[1,5-a]pyridin-2-yl)prop-2-yn-1-yl]-1H-pyrazole-4-carboxamide] the same measures were 4 nM and 173 nM.
The compound `CN1CC[C@@H](Nc2cccc3c(CC(F)(F)F)c(C#CCNC(=O)c4cnn(C5CC5)c4N)nn23)[C@@H](F)C1` [Compound 305, 5-amino-N-[3-(7-{[(3S,4R)-3-fluoro-1-methylpiperidin-4-yl]amino}-3-(2,2,2-trifluoroethyl)pyrazolo[1,5-a]pyridin-2-yl)prop-2-yn-1-yl]-1-(cyclopropyl)-1H-pyrazole-4-carboxamide] returned an SC150 in test [1] of 7 nM. Also, the IC50 in test [2] (Homo sapiens, NUGC-3, 168 h) worked out at 193 nM.
In the same order, the values of `CN1CC[C@@H](Nc2cccc3c(CC(F)(F)F)c(C#CCNC(=O)c4ccc(N5CCCCC5)nc4)nn23)[C@@H](F)C1` [Compound 316, N-[3-(7-{[(3S,4R)-3-fluoro-1-methylpiperidin-4-yl]amino}-3-(2,2,2-trifluoroethyl)pyrazolo[1,5-a]pyridin-2-yl)prop-2-yn-1-yl]-6-(piperidin-1-yl)nicotinamide] are 97 nM and 2160 nM.
For `CN1CC[C@@H](Nc2cccc3c(CC(F)(F)F)c(C#CCNC(=O)c4ccc(C(C)(C)O)cc4)nn23)[C@@H](F)C1` [Compound 230, N-[3-(7-{[(3S,4R)-3-fluoro-1-methylpiperidin-4-yl]amino}-3-(2,2,2-trifluoroethyl)pyrazolo[1,5-a]pyridin-2-yl)prop-2-yn-1-yl]-4-(2-hydroxyprop-2-yl)benzamide] the same measures were 29 nM and 1060 nM.
`CC(C1CC1)n1ncc(C(=O)NCC#Cc2nn3c(N[C@@H]4CCN(C)C[C@@H]4F)cccc3c2CC(F)(F)F)c1N` (stereo partly drawn) [Compound 291, 5-amino-1-(1-cyclopropylethyl)-N-[3-(7-{[(3S,4R)-3-fluoro-1-methylpiperidin-4-yl]amino}-3-(2,2,2-trifluoroethyl)pyrazolo[1,5-a]pyridin-2-yl)prop-2-yn-1-yl]-1H-pyrazole-4-carboxamide] registered an SC150 in test [1] of 7 nM. Further, the half-maximal inhibitory concentration (IC50) in test [2] (Homo sapiens, NUGC-3, 168 h) is 249 nM.
